Source: patent US8362000B2, “Azetidinyl diamides as monoacylglycerol lipase inhibitors” (Janssen Pharmaceutica NV, priority 2009, dated 2013)
Where a chain is given by its changes, count along the chain named. Like-named read-outs stand apart in the source and are kept apart here.

Experiments:
[1] = target: T1, purified wild type MGL (wt-MGLL 6H-11-313) (Homo sapiens, UniProt Q99685)
T1 sequence (Q99685 1-303): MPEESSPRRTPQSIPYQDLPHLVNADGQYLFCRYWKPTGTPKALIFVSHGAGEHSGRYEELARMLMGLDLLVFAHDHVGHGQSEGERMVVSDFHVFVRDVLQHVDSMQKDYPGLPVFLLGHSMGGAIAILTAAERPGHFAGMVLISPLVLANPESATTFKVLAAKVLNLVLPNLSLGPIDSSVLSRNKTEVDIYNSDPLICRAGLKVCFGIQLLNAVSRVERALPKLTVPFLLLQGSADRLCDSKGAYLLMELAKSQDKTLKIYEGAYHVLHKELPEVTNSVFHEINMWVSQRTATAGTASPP

MGL = target: T2, MGL (Rattus norvegicus, UniProt Q8R431); test: 2-AG accumulation assay in rat brain homogenate; type: biochemical; details: rat brain homogenate; compound 1 μM; 2-AG accumulation as percent of vehicle; read-out: Rat Brain 2AG % VehCntrl (%) @ 1 μM
T2 construct: one g rat brain was homogenized using a Polytron homogenizer; from tissue; host or cells: rat brain homogenate
T2 sequence (Q8R431 1-303): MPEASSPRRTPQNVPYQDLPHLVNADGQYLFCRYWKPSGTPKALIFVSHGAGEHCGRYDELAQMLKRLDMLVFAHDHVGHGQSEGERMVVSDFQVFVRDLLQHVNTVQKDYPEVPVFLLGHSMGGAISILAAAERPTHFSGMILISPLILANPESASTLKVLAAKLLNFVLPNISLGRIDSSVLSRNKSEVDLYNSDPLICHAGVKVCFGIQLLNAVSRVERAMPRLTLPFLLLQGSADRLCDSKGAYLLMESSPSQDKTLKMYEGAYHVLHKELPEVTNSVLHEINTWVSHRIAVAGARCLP

mutant MGL = target: T3, mutant MGL (Homo sapiens, UniProt Q99685, L169S/L176S); test: MGL ThermoFluor assay - mutant; type: binding
T3 sequence (Q99685 1-303 L169S/L176S): T1 sequence (Q99685 1-303) with L169S, L176S
Description: The ThermoFluor (TF) assay is a 384-well plate-based binding assay that measures thermal stability of proteins^1,2. […] TF dye used in all experiments was 1,8-ANS (Invitrogen: A-47). Final TF assay conditions used for MGL studies were 0.07 mg/ml of mutant MGL, 100 μM ANS, 200 mM NaCl, 0.001% Tween-20 in 50 mM PIPES (pH=7.0).
Screening compound plates contained 100% DMSO compound solutions at a single concentration. […] Columns 12 and 24 were used as DMSO reference and contained no compound. […] Following compound dispension, protein and dye solutions were added to achieve the final assay volume of 3 μL.
Bar-coded assay plates were robotically loaded onto a thermostatically controlled PCR-type thermal block and then heated from 40 to 90° C. degrees at a ramp-rate of 1° C./min for all experiments. Fluorescence was measured by continuous illumination with UV light (Hamamatsu LC6), supplied via fiber optics and filtered through a band-pass filter (380-400 nm; >60D cutoff). Fluorescence emission of the entire 384-well plate was detected by measuring light intensity using a CCD camera (Sensys, Roper Scientific) filtered to detect 500±25 nm, resulting in simultaneous and independent readings of all 384 wells. A single image with 20-sec exposure time was collected at each temperature, and the sum of the pixel intensity in a given area of the assay plate was recorded vs temperature and fit to standard equations to yield the Tm^1. • 1.
For some experiments, quantitative NMR spectroscopy (qNMR) was used to measure concentration of the initial 100% DMSO compound solutions and, using the same fitting method, qKd values were determined

[2] = ThermoFluor, compound concentration measured by qNMR, read-out: MGL mutant ThermoFluor qKd (using qNMR conc.)
[3] = ThermoFluor concentration-response, read-out: MGL mutant ThermoFluor Kd

Row | Structure (SMILES) | IC50 [1] [nM] | 2-AG accumulation, % of vehicle control at 1 µM (MGL) [%] | Kd (mutant MGL; [2]) [µM] | Kd (mutant MGL; [3]) [µM] | Kd (mutant MGL; ThermoFluor, compound concentration measured by qNMR, read-out: MGL mutant ThermoFluor qKd (μM) (using qNMR conc.)) [µM] | Kd (mutant MGL; ThermoFluor thermal stability binding assay, read-out: MGL mutant ThermoFluor Kd) [µM]
1 | O=C(c1ccc2c(ccn2-c2ccc(C(F)(F)F)nc2)c1)N1CC(N2CCN(C(=O)c3nccs3)CC2)C1 [Cpd 1312, 5-({3-[4-(1,3-Thiazol-2-ylcarbonyl)piperazin-1-yl]azetidin-1-yl}carbonyl)-1-[6-(trifluoromethyl)pyridin-3-yl]-1H-indole] | < 5 | 963 | 0.008 |  |  | 
2 | O=C(c1ccc2c(ccn2-c2ccc(Cl)cn2)c1)N1CC(N2CCN(C(=O)c3nccs3)CC2)C1 [Cpd 1313, 1-(5-Chloropyridin-2-yl)-5-({3-[4-(1,3-thiazol-2-ylcarbonyl)piperazin-1-yl]azetidin-1-yl}carbonyl)-1H-indole] | < 5 | 851 | 0.001 | 0.003 |  | 
3 | O=C(c1nccs1)N1CCN(C2CN(C(=O)c3sc4ccc(-c5ccccc5)cc4c3F)C2)CC1 [Cpd 1315, 1-{1-[(3-Fluoro-5-phenyl-1-benzothiophen-2-yl)carbonyl]azetidin-3-yl}-4-(1,3-thiazol-2-ylcarbonyl)piperazine] | < 5 | 486 |  | 0.002 |  | 
4 | O=C(c1ccc2c(-c3ccccc3)c[nH]c2c1)N1CC(N2CCN(C(=O)c3nccs3)CC2)C1 [Cpd 1316] | < 5 | 602 |  | 0.002 |  | 
5 | O=C(c1ccc2c(-c3ccc(F)cc3)c[nH]c2c1)N1CC(N2CCN(C(=O)c3nccs3)CC2)C1 [Cpd 1317, 3-(4-Fluorophenyl)-6-({3-[4-(1,3-thiazol-2-ylcarbonyl)piperazin-1-yl]azetidin-1-yl}carbonyl)-1H-indole] | < 5 | 722 |  | 0.002 |  | 
6 | O=C(c1nccs1)N1CCN(C2CN(C(=O)c3cccc4c3ccn4-c3ccc(F)cc3)C2)CC1 [Cpd 1320, 1-(4-Fluorophenyl)-4-({3-[4-(1,3-thiazol-2-ylcarbonyl)piperazin-1-yl]azetidin-1-yl}carbonyl)-1H-indole] | < 5 | 823 |  |  | 0.015 | 
7 | Cc1cc(C(=O)N2CC(N3CCN(C(=O)c4nccs4)CC3)C2)ccc1-c1ccccc1 [Cpd 1322, 1-{1-[(2-Methylbiphenyl-4-yl)carbonyl]azetidin-3-yl}-4-(1,3-thiazol-2-ylcarbonyl)piperazine] | < 5 | 457 |  | 0.002 |  | 
8 | O=C(c1nccs1)N1CCN(C2CN(C(=O)c3ccc(-c4ccccc4)cc3Cl)C2)CC1 [Cpd 1323] | < 5 | 297 |  | 0.004 |  | 
9 | O=C(c1ccc(-c2cccc(C(F)(F)F)c2)cc1)N1CC(N2CCN(C(=O)c3ccc[nH]3)CC2)C1 [Cpd 1325] | < 5 | 575 |  |  |  | 0.006
10 | O=C(c1ccc(-c2nc(-c3ccccc3)cs2)cc1)N1CC(N2CCN(C(=O)c3nccs3)CC2)C1 [Cpd 1326] | < 5 | 944 |  | 0.004 |  | 
11 | O=C(c1ccc(-n2nc3c(c2-c2ccc(Cl)cc2)CCCC3)cc1)N1CC(N2CCN(C(=O)c3nccs3)CC2)C1 [Cpd 1327] | < 5 | 966 |  | 0.005 |  | 
12 | O=C(c1ccc(-c2nc(-c3ccc(Cl)cc3Cl)cs2)cc1)N1CC(N2CCN(C(=O)c3nccs3)CC2)C1 [Cpd 1329] | < 5 | 834 |  | 0.006 |  | 
13 | O=C(c1ccc(-n2nc3c(c2-c2cccc(C(F)(F)F)c2)CCC3)cc1)N1CC(N2CCN(C(=O)c3nccs3)CC2)C1 [Cpd 1330] | < 5 | 589 | 0.005 | 0.002 |  | 
14 | O=C(c1ccc(-c2nc(-c3ccc(Cl)c(Cl)c3)cs2)cc1)N1CC(N2CCN(C(=O)c3nccs3)CC2)C1 [Cpd 1331] | < 5 | 803 | 0.01 |  |  | 
15 | O=C(c1ccc2cc(-c3ccccc3)[nH]c2c1)N1CC(N2CCN(C(=O)c3nccs3)CC2)C1 [Cpd 1333] | < 5 | 824 | 0.04 |  |  | 
